# Earlier results as cited in article PMC4895201 (Journal of natural products, 2009).
# What was measured:
# [1] = system: breast and prostate xenografts; conditions: compared with KF (3)
# [2] = system: epidermal growth factor receptor (ErbB family); conditions: early research
substance,measurement,setting,value
(4S)- methylhexanoic kahalalide F [isoKF (4)],"antitumor activity, in vitro and in vivo",various solid cell lines,significant in vitro and in vivo antitumor activity against various solid cell lines
same,in vivo efficacy against breast and prostate xenografts,[1],enhanced efficacy against breast and prostate xenografts
kahalalide F [KF (3)],"antitumor activity, in vitro and in vivo",various solid cell lines,significant in vitro and in vivo antitumor activity against various solid cell lines
same,blockade of epidermal growth factor receptor (ErbB family),[2],blocked the epidermal growth factor receptor (ErbB family)
